The values that follow come from US10683297B2 (Sunshine Lake Pharma Co., Ltd., priority 2017, dated 2020).

Usually AUC(0-t) stands for exposure summed from dosing to a finite time, without extrapolation to infinity. High values mean more exposure, low ones less exposure. Broadly, the half-life is how long it takes for the measured level to halve. A lower half-life goes with rapid decline. Usually IC50 stands for the concentration needed to halve the response being measured. Higher therefore signals weaker potency. As a reminder, the bioavailability is the share of a dose that reaches the circulation, judged against a reference dose that is usually intravenous.

The nature of series [1]: Pharmacokinetics after intravenous and oral administration in rats. Type of series: in vivo. The note with it: for Clearance (CL) after iv dosing / AUC(0-t) / half-life / Vd: dose 1 mg/kg (Ex. 9: 0.6, Ex. 18: 0.5, Ex. 50: 0.96 mg/kg), iv dosing; for AUC(0-t) / half-life / Vd / bioavailability: rat, plasma; for Vd: read-out: Vss; for bioavailability: oral (generally 5 or 10 mg/kg) versus iv dosing, read-out: F (oral bioavailability). In short, it runs like this:
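Rats dosed i.v. (about 0.5, 0.6, 1 or 2 mg/kg) or p.o. (5 or 10 mg/kg) as solution, suspension or capsule. Plasma sampled over 24 h and quantified by LC/MS/MS in MRM mode with ESI.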

For series [2], the target named is T1, JAK2 (h) (Homo sapiens, UniProt O60674).
T1 construct: purchased Millipore UK Ltd (assays performed there as a service)
Briefly: JAK2 (h) kinase assay. Type of series: biochemical. As to conditions: [γ-33P-ATP] 10 μM or KM values; 40 minutes at room temperature. In short, it runs like this:
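Radiometric filter-binding assay run at Millipore: human JAK2 with 100 μM peptide substrate in 8 mM MOPS pH 7.0, 0.2 mM EDTA, 10 mM MgAcetate, [γ-^33P]ATP at 10 μM or KM, 40 min at room temperature. Acid-stopped, spotted on P30 filtermat, scintillation counted; IC50 from 10-point ½-log curve.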

T1 sequence (O60674 whole entry): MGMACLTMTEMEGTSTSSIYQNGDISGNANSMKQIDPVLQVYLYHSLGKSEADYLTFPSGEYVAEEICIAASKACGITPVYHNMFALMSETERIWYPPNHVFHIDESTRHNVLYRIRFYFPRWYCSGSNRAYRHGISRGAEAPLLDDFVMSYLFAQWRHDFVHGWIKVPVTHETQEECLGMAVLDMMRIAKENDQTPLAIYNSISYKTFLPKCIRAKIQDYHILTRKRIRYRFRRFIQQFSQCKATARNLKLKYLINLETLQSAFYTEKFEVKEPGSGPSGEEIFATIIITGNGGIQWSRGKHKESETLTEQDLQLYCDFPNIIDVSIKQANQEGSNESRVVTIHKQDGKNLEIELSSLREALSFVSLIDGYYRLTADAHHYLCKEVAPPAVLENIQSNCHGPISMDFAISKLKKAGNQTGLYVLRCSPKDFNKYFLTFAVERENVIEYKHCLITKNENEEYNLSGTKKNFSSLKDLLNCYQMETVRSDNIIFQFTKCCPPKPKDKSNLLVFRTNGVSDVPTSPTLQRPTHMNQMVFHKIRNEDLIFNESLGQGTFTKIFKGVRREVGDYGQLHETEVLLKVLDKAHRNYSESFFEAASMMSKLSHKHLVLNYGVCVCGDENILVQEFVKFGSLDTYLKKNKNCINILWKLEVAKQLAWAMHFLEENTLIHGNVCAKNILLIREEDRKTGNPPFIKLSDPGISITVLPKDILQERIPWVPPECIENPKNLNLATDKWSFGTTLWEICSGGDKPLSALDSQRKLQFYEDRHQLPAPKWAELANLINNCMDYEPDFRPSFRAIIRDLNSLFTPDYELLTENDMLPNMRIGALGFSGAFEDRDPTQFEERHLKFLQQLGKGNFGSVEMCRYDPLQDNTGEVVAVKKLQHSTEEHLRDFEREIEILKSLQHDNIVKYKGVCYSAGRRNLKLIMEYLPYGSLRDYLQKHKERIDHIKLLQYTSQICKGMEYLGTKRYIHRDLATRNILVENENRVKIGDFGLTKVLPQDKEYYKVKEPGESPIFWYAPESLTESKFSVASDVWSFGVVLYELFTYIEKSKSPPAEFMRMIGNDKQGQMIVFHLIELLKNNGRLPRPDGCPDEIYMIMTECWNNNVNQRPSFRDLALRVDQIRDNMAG

For the compound `CC(C)(O)c1cnc2cc(Nc3ncc(Cl)c(NC4CCN(c5ccc(C#N)cn5)CC4)n3)ccn12` [Example 68, 6-(4-((5-chloro-2-((3-(2-hydroxypropan-2-yl)imidazo[1,2-a]pyridin-7-yl)amino)pyrimidin-4-yl)amino)piperidin-1-yl)nicotinonitrile], in series [1], the “Clearance (CL) after iv dosing” value came to 0.90 L/h/kg, the AUC(0-t) came to 1.09 µg·h/mL, the half-life is 80.4 min and the Vd is 1.51 L/kg. Besides, 3 nM corresponded to half-maximal inhibition in series [2] (IC50).

`CC(C)(O)Cn1nnc2cc(Nc3ncc(Cl)c(NC4CCN(c5ccc(C#N)cn5)CC4)n3)ccc21` [Example 69, 6-(4-((5-chloro-2-((1-(2-hydroxy-2-methylpropyl)-1H-benzo[d][1,2,3]triazol-5-yl)amino)pyrimidin-4-yl)amino)piperidin-1-yl)nicotinonitrile]: in series [1], the “Clearance (CL) after iv dosing” value stood at 1.33 L/h/kg, the AUC(0-t) was determined as 0.752 µg·h/mL, the half-life is 56.4 min and the Vd was 1.7 L/kg. Further, the bioavailability in series [1] was found to be 69.8%. The compound further showed an IC50 in series [2] of 2 nM.

Regarding `CC(C)(O)c1cn2ccc(Nc3ncc(Cl)c(NC4CCN(c5ccc(C#N)cn5)CC4)n3)cc2n1` [Example 70, 6-(4-((5-chloro-2-((2-(2-hydroxypropan-2-yl)imidazo[1,2-a]pyridin-7-yl)amino)pyrimidin-4-yl)amino)piperidin-1-yl)nicotinonitrile], in series [1], the “Clearance (CL) after iv dosing” value is reported as 1.16 L/h/kg, the AUC(0-t) stood at 0.86 µg·h/mL, the half-life is 56.4 min and the Vd amounted to 1.39 L/kg. For the same compound, the bioavailability in series [1] turned out to be 23.5%. In series [2], this compound returned an IC50 of 8 nM.

With `CC(C)(O)Cc1cn2cc(Nc3ncc(Cl)c(NC4CCN(c5ccc(C#N)cn5)CC4)n3)ccc2n1` [Example 73, 6-(4-((5-chloro-2-((2-(2-hydroxy-2-methylpropyl)imidazo[1,2-a]pyridin-6-yl)amino)pyrimidin-4-yl)amino)piperidin-1-yl)nicotinonitrile], in series [1], the “Clearance (CL) after iv dosing” value was determined as 2.19 L/h/kg, the AUC(0-t) was 0.464 µg·h/mL, the half-life is 42 min and the Vd is 1.8 L/kg. The bioavailability in series [1] was determined as 56.4%. Moreover, the IC50 in series [2] turned out to be 5 nM.

On to `CC(C)(O)Cc1nc2cc(Nc3ncc(Cl)c(NC4CCN(c5ccc(C#N)nn5)CC4)n3)ccn2n1` [Example 77, 6-(4-((5-chloro-2-((2-(2-hydroxy-2-methylpropyl)-[1,2,4]triazolo[1,5-a]pyridin-7-yl)amino)pyrimidin-4-yl)amino)piperidin-1-yl)pyridazine-3-carbonitrile], for which, in series [1], the “Clearance (CL) after iv dosing” value is on record as 9.07 L/h/kg, the AUC(0-t) turned out to be 1.86 µg·h/mL, the half-life was 50.6 min and the Vd came to 0.623 L/kg. Further, in series [2], the 50% inhibitory concentration (IC50) was determined as 17 nM.

As to `CC(C)(O)Cc1nc2cc(Nc3ncc(Cl)c(NC4CCN(c5ccc(C#N)cn5)CC4)n3)ccn2n1` [Example 78, 6-(4-((5-chloro-2-((2-(2-hydroxy-2-methylpropyl)-[1,2,4]triazolo[1,5-a]pyridin-7-yl)amino)pyrimidin-4-yl)amino)piperidin-1-yl)nicotinonitrile], in series [1], the “Clearance (CL) after iv dosing” value was found to be 11.2 L/h/kg, the AUC(0-t) came out at 1.49 µg·h/mL, the half-life was 59.2 min and the Vd is 0.795 L/kg. In addition, the bioavailability in series [1] amounted to 84.8%. The compound further returned an IC50 in series [2] of 10 nM.

For `CC(C)(O)Cc1nc2ccc(Nc3ncc(Cl)c(NC4CCN(c5ccc(C#N)nn5)CC4)n3)cn2n1` [Example 79, 6-(4-((5-chloro-2-((2-(2-hydroxy-2-methylpropyl)-[1,2,4]triazolo[1,5-a]pyridin-6-yl)amino)pyrimidin-4-yl)amino)piperidin-1-yl)pyridazine-3-carbonitrile], in series [1], the “Clearance (CL) after iv dosing” value is listed as 16.3 L/h/kg, the AUC(0-t) was 1.02 µg·h/mL, the half-life is 45.7 min and the Vd is 1.23 L/kg. The bioavailability in series [1] was found to be 42.1%. Besides, the IC50 in series [2] was determined as 102 nM.
